The target in test [1] is T1, FabF (Staphylococcus aureus, UniProt Q8NXE1).
T1 sequence (Q8NXE1 1-414): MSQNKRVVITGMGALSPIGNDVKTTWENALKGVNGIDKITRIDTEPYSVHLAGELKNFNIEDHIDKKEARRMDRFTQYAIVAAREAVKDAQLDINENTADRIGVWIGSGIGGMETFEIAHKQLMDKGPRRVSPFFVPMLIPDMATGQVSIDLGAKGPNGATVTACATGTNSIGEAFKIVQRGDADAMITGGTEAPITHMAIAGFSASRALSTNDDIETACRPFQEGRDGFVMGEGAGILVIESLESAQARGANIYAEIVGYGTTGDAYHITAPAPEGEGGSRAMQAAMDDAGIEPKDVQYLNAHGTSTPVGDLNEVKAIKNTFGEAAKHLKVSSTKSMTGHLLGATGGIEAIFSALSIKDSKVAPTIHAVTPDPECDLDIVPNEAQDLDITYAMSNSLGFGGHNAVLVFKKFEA
In kind it is biochemical.

The target in test [2] is T1, FabF. The test can be described thus: […]-malonyl-CoA FASII elongation assay. In kind it is biochemical.

Read-outs that look alike come from different tables or passages of the source.

Substance fasamycin A [compound 1] displayed a half-maximal inhibitory concentration (IC50) against FabF [1] of 50 µg/mL.

For fasamycin B [compound 2], at FabF [2], the IC50 came to 80 µg/mL.

The IC50 is the midpoint of a concentration-inhibition curve. Read a high IC50 as weaker potency.

(Values after paper PMC3335777 (Journal of the American Chemical Society, 2012).)
